The record followed here is PubChem BioAssay AID720562 (Broad Institute, 2013).

In the test the target is Luciferin 4-monooxygenase (Photinus pyralis) (UniProt P08659). The test is described as follows: firefly luciferase activators or modifiers, dose response, counter-screen for NLG project, biochemical, CellTiter-Glo luminescence, dry powder samples (AID 720562). Particulars: purified luciferase, 1 h.

Calls of active or inactive are those of the source.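 How the source made its calls: active means fitted curve rises past 40% activation at or below the highest valid tested dose; inconclusive means flat fit between 30% and 70%, or poor curve fit; inactive means the rest, including signal falling instead of rising.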

Sequence of Luciferin 4-monooxygenase (Photinus pyralis) (P08659 whole entry, looked up): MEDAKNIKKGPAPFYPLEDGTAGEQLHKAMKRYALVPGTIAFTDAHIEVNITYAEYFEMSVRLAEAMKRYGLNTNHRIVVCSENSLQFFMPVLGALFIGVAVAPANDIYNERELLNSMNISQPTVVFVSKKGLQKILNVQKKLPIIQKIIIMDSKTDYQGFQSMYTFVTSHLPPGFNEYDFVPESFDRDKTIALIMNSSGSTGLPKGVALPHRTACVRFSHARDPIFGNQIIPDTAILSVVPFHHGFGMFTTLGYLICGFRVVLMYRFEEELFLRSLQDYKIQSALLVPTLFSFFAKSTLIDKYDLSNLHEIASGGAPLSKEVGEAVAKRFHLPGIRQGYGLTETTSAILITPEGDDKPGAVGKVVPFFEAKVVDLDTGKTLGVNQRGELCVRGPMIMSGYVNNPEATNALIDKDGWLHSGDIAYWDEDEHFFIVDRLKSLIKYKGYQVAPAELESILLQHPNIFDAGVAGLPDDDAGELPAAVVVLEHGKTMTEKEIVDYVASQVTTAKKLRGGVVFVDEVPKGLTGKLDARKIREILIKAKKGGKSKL

For the molecule `CCCNS(=O)(=O)c1cccc(C(=O)OCc2cc(=O)oc3cc(OC)ccc23)c1`, the AC40 was 6.81 µM.

Regarding `C/C(=N\NC(=O)c1c([N+](=O)[O-])c(C)nn1C)c1ccc(NC(=O)C2CCCC2)cc1`, under “at 30 µM (top of the series)”, the luminescence change, positive = activation is -2.7% (inactive).

For `O=C1CCN(Cc2ccccc2)c2cc3ccccc3cc21`, where the note is “at 7.5 µM (top of the series)”, the luminescence change, positive = activation is 10.8% (inactive).

Take `CC(=O)N1CCC(=O)c2cc3ccccc3cc21`: the AC40 is 4.65 µM.

As for `COc1ccccc1-c1nnc(SCc2ccccc2)o1`, the luminescence change, positive = activation (at 30 µM (top of the series)) was -10.8% (inactive).

Regarding `COc1ccc(NC(=O)C(=O)c2cn(CC(=O)N3CCCC3)c3ccccc23)cc1`, the luminescence change, positive = activation (at 30 µM (top of the series)) was -20.3% (inactive).

As to `CCC1=Nc2cc(C(=O)NCCCOC)ccc2Sc2ccccc21`, the luminescence change, positive = activation (at 30 µM (top of the series)) was -11.5% (inactive).

As to `CCn1c2ccccc2c2cc(NC(=O)c3cc(OC)c(OC)c(OC)c3)ccc21`, the luminescence change, positive = activation (at 7.5 µM (top of the series)) is -35.8% (inactive).

As to `CCN(CC)CCOc1ccc2c(c1)C(=NNC(=O)c1ccccn1)c1cc(OCCN(CC)CC)ccc1-2`, the AC40 was > 30 µM (inactive).

`COC(=O)c1cn(C(=O)c2ccc(OC)cc2)c2ccccc12`: the AC40 was 12.5 µM.

On to `CCN(CC)CCCNc1nc2cc(OC)c(OC)cc2c2nc(-c3ccccc3)nn12`, for which the luminescence change, positive = activation (at 30 µM (top of the series)) was -10.1% (inactive).

Take `O=C1CCNc2cc3ccccc3cc21`: the AC40 was 28.2 µM.

In the case of `CCCOC(=O)c1[nH]c2c(c1C)C(=O)CC(c1cccs1)C2` (configuration not stated), the AC40 is 10 µM.

On to `O=C(N/N=C/c1ccc(Cl)cc1)c1sccc1OCc1ccc(F)cc1`, for which the AC40 was > 30 µM (inactive).

For `Cc1cc(=O)[nH]c(N/N=C/c2cc(C)n(CC(F)(F)F)c2C)n1`, where the note is “at 30 µM (top of the series)”, the luminescence change, positive = activation is 36% (inactive).

Take `COc1ccc2c(COC(=O)c3cccc(S(=O)(=O)NCC(C)C)c3)cc(=O)oc2c1`: the AC40 is 1.49 µM.

For the molecule `Brc1ccc(CSc2nnc(-c3ccccc3)o2)cc1`, the luminescence change, positive = activation (at 30 µM (top of the series)) was 21.6% (inactive).

In the case of `CCCCOc1ccccc1C1CC(=O)NC2=C1C(=O)CCC2` (configuration not stated), the luminescence change, positive = activation (at 30 µM (top of the series)) was -27% (inactive).

`CC(=O)c1cccc(NC(=O)CSc2ncc(C(=O)Nc3ccccc3)c(=O)n2C)c1`: where the note is “at 30 µM (top of the series)”, the luminescence change, positive = activation was -7.43% (inactive).

Take `Cc1ccc(Oc2ccc(S(=O)(=O)N3CCOCC3)cc2C(N)=O)c(-n2nc3ccccc3n2)c1`: the luminescence change, positive = activation (at 30 µM (top of the series)) is -22.3% (inactive).

Consider `CC(=O)c1ccc(Oc2cc(C)nc(-n3nc(C)cc3C)n2)cc1`, for which the luminescence change, positive = activation (at 30 µM (top of the series)) is -10.8% (inactive).

On to `O=C(Cc1ccccc1)c1nnc(-c2ccccc2)o1`, for which the AC40 is > 30 µM (inactive).

Consider `Cc1cc(C)cc(C(=O)N2CC(=O)Nc3ccccc32)c1`, for which the luminescence change, positive = activation (at 30 µM (top of the series)) is -9.46% (inactive).

Consider `COc1cc(-c2nnc(SCC3(c4ccc(Br)cc4)OCCO3)o2)cc(OC)c1OC`, for which the AC40 was > 30 µM (inactive).

As for `Cc1ccc(/C=N/NC(=O)C2COc3ccccc3O2)s1` (configuration not stated), the AC40 was > 30 µM (inactive).

With `CCOC(=O)c1ccc(Oc2cc(C)nc(SC)n2)cc1`, where the note is “at 30 µM (top of the series)”, the luminescence change, positive = activation was 16.2% (inactive).

Turning to `COc1ccc(-c2nnc(SCc3ccccc3)o2)cc1`, the AC40 was > 30 µM (inactive).

For `COc1cccc(N2CCN(C(=O)c3ccc(CS(=O)c4ccc(C)cc4)o3)CC2)c1` (configuration not stated), the luminescence change, positive = activation (at 30 µM (top of the series)) is 8.11% (inactive).

In the case of `COc1ccccc1OCC(=O)NNC(=O)c1ccoc1C`, the luminescence change, positive = activation (at 30 µM (top of the series)) is -17.6% (inactive).

For `Cc1[nH][nH]c(=O)c1C(c1ccc(-c2ccc(Cl)c(Cl)c2)o1)c1c(C)[nH][nH]c1=O`, the luminescence change, positive = activation (at 30 µM (top of the series)) is 7.43% (inactive).

Take `Cc1cc(C)nc(/N=C(\N)Nc2ccc(OCc3ccccc3)cc2)n1`: the luminescence change, positive = activation (at 30 µM (top of the series)) is 36.9% (inactive).

As for `COc1ccc(CSc2nnc(-c3ccccc3)o2)cc1`, the AC40 is > 30 µM (inactive).

For the molecule `Cc1ccc(CCC(=O)Nc2ncc(Cc3cc(Cl)ccc3Cl)s2)o1`, for the setting “at 30 µM (top of the series)”, the luminescence change, positive = activation is -24.3% (inactive).

Take `COc1cc(Nc2c3c(nc4ccccc24)CCCC3)cc(OC)c1OC`: where the note is “at 30 µM (top of the series)”, the luminescence change, positive = activation is -14.9% (inactive).

In the case of `COc1cc(C(=O)NCCOc2cc(C)cc(C)c2)cc(OC)c1OC`, the AC40 is 24.5 µM.

On to `CCOc1ccc(NC(=O)c2cc(OC)nc3ccccc23)cc1`, for which the luminescence change, positive = activation (at 30 µM (top of the series)) was -0.676% (inactive).

Consider `CCOC(=O)COc1cccc2c(=O)n(CC(=O)NCc3ccccc3)ccc12`, for which, where the note is “at 30 µM (top of the series)”, the luminescence change, positive = activation is -4.73% (inactive).

As to `CC(=O)N[C@H]1[C@@H](O[C@@H]2OC(C[C@@H](O)C3O[C@@H](n4ccc(=O)[nH]c4=O)[C@H](O)[C@@H]3O)[C@H](O)[C@H](O)[C@H]2NC(=O)/C=C/CCCCCCCCCCC(C)C)O[C@H](CO)[C@@H](O)[C@@H]1O` (some centres not stated), the AC40 is 13.1 µM.

With `Cc1cccc(C)c1OCCNC(=O)C(=O)NCc1ccco1`, the luminescence change, positive = activation (at 30 µM (top of the series)) is -39.9% (inactive).

For the molecule `Cc1cc(NC(=O)CSc2nc(-c3ccco3)cc(C(F)(F)F)n2)no1`, under “at 30 µM (top of the series)”, the luminescence change, positive = activation was -25.7% (inactive).

As for `Cc1ccc(C(=O)c2cc([N+](=O)[O-])ccc2N2CCOCC2)cc1C`, the luminescence change, positive = activation (at 30 µM (top of the series)) is 19.8% (inactive).

Turning to `CCOc1ccc(S(=O)(=O)NCc2ccccn2)cc1NC(=O)c1ccccc1F`, the luminescence change, positive = activation (at 7.5 µM (top of the series)) was -35.8% (inactive).

Turning to `Nc1nc(=S)c2ncn([C@@H]3O[C@H](CO)[C@@H](O)[C@H]3O)c2[nH]1`, the luminescence change, positive = activation (at 30 µM (top of the series)) was 97.3% (inactive).

Consider `CCN(CC)CCC(=O)Nc1cccc2c1C(=O)c1ccccc1C2=O`, for which the AC40 was 14.7 µM.

Regarding `c1ccc(CSc2nnc(-c3ccccc3)o2)cc1`, the AC40 is 20.9 µM.

As to `Cc1cnc(NC(=O)c2cc(S(=O)(=O)N(C)C)ccc2N2CCCC2)s1`, the luminescence change, positive = activation (at 30 µM (top of the series)) is 8.11% (inactive).

As to `COc1ccccc1CSc1nnc(-c2ccccc2)o1`, the luminescence change, positive = activation (at 30 µM (top of the series)) was 19.8% (inactive).
